Where two headings read alike, the source gives them in different places. Where a SMILES comes first, the peptide text is derived from it. Where no end group is shown, it is not given here. [ ]: non-standard residue; d: D form. Bip = N[C@@H](Cc1ccc(-c2ccccc2)cc1)C(=O)O; Dmt = Cc1cc(O)cc(C)c1C[C@H](N)C(=O)O; hPhe = N[C@@H](CCc1ccccc1)C(=O)O; Phg = N[C@H](C(=O)O)c1ccccc1; Nle = CCCC[C@H](N)C(=O)O; Abu = CC[C@H](N)C(=O)O; Dap = NC[C@H](N)C(=O)O
What was measured:
[1] = molecular target: T1, human NOP receptor (Homo sapiens, UniProt P41146); assay: Calcium mobilization, NOP receptor; assay type: cell-based; settings: for NOP pEC50 (CL95%): CHO cells coexpressing human NOP and Gαqi5, Fluo-4 AM, 37 °C, mean of at least three experiments in duplicate, CL95% in brackets; for NOP/mu CR (concentration ratio): calcium mobilization, NOP versus mu; for Emax: mean ± SEM of at least three experiments in duplicate, SEM
T1 construct: expressed in transfected cells; host or cells: CHO cells stably coexpressing the receptor and chimeric Gαqi5
Protocol: CHO cells stably coexpressing the human NOP or kappa or the mu receptor and the C-terminally modified Gαqi5 and CHO cells coexpressing the delta receptor and the GαqG66Di5 protein were generated and cultured as described previously.[45],[46] Cells were maintained in Dulbecco’s modified Eagle’s medium/nutrient mixture F-12 (DEMEM/F-12) supplemented with 10% FBS, 100 U/mL penicillin and 100 μg/mL streptomycin, 100 μg/mL hygromicin B, and 200 μg/mL G418 and cultured at 37 °C in 5% CO2 humidified air. Cells were seeded at a density of 50,000 cells/well into 96-well black, clear-bottom plates. The following day, the cells were incubated with Hanks’ balanced salt solution (HBSS) supplemented with 2.5 mM probenecid, 3 μM of the calcium-sensitive fluorescent dye Fluo-4 AM, and 0.01% pluronic acid for 30 min at 37 °C. After that time, the loading solution was aspirated and 100 μL/well of HBSS supplemented with 20 mM HEPES, 2.5 mM probenecid, and 500 μM brilliant black was added. Serial dilutions were carried out in HBSS/HEPES (20 mM) buffer (containing 0.02% BSA fraction V). After placing both plates (cell culture and master plate) into the fluorometric imaging plate reader FlexStation II (Molecular Devices, Sunnyvale, CA), fluorescence changes were measured. On-line additions were carried out in a volume of 50 μL/well. To facilitate drug diffusion into the wells, the present studies were performed at 37 °C. Maximum change in fluorescence, expressed as percent over the baseline fluorescence, was used to determine agonist response.
The pharmacological terminology adopted in this paper is consistent with IUPHAR recommendations.[59] All data are expressed as the mean ± standard error of the mean (SEM) of at least three experiments performed in duplicate. […] Concentration-response curves to agonists were fitted to the classical four-parameter logistic nonlinear regression model:
Effect = Baseline + (Emax – Baseline)/(1 + 10^(LogEC50 – Log[compound]) × Hillslope). Curve fitting was performed using PRISM 6.0 (GraphPad Software Inc., San Diego).

[2] = molecular target: T2, human mu receptor (Homo sapiens, UniProt P35372); assay: Calcium mobilization, mu opioid receptor; assay type: cell-based; settings: for mu pEC50 (CL95%): CHO cells coexpressing human mu receptor and Gαqi5, Fluo-4 AM, 37 °C, mean of at least three experiments in duplicate, CL95% in brackets; for pEC50_mu: molecular formula strings CSV, repeats calcium mobilization values of Tables 1-3; for activation at 10 µM / Emax / mu Emax ± S.E.M.: percent over the baseline fluorescence; for activation at 10 µM: mean ± SEM; for activation at 10 µM / Emax: SEM; for Emax / mu Emax ± S.E.M.: mean ± SEM of at least three experiments in duplicate
T2 construct: expressed in transfected cells; host or cells: CHO cells stably coexpressing the receptor and chimeric Gαqi5

[3] = read-out: NOP Emax ± S.E.M., Table 2 series, percent over the baseline fluorescence
[4] = read-out: mu effect at 10 μM (crc incomplete), Table 2 series
[5] = read-out: mu Emax ± S.E.M., Table 2 series
[6] = read-out: NOP Emax ± S.E.M., Table 1 series, maximum change in fluorescence as percent over the baseline fluorescence
[7] = read-out: mu effect at 10 μM (crc incomplete), Table 1 series
[8] = read-out: mu Emax ± S.E.M, Table 1 series

T1 sequence (P41146 whole entry): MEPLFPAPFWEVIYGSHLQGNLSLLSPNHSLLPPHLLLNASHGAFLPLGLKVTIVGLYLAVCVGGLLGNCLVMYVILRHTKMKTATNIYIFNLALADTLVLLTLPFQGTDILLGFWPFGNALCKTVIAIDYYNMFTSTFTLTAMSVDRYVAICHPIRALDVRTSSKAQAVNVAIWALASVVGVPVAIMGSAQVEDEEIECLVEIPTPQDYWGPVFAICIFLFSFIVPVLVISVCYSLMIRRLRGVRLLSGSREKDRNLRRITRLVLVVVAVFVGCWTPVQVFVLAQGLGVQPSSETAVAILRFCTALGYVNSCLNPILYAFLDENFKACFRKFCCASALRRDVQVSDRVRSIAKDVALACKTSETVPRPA
T2 sequence (P35372 whole entry): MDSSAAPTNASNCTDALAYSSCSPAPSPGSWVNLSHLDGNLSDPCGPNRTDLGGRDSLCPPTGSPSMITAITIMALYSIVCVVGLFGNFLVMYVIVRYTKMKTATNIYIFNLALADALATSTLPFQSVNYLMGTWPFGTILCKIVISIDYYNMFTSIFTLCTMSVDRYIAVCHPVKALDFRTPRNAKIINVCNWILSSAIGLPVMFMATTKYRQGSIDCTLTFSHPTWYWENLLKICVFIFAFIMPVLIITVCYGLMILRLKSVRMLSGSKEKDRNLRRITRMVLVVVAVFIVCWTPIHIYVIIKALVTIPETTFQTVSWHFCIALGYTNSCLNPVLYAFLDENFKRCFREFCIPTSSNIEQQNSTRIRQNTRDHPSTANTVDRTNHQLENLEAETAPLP

Molecule | NOP pEC50 (CL95%) ([1]; Table 2 series) | NOP/mu CR (concentration ratio) ([1]; Table 2 series) | Emax [1, 3] [%] | mu pEC50 (CL95%) ([2]; Table 2 series) | pEC50_mu [2] | NOP pEC50 (CL95%) ([1]; Table 1 series, FlexStation II) | NOP/mu CR (concentration ratio) ([1]; Table 1 series) | Emax [1, 6] [%] | mu pEC50 (CL95%) ([2]; Table 1 series) | other results
C[C@H](NC(=O)CNC(=O)[C@H](CCc1ccccc1)NC(=O)[C@H](Cc1ccccc1)NC(=O)CNC(=O)CNC(=O)[C@@H](N)Cc1ccc(O)cc1)C(=O)N[C@@H](CCCNC(=N)N)C(=O)N[C@@H](CCCCN)C(=O)N[C@@H](CO)C(=O)N[C@@H](C)C(=O)N[C@@H](CCCNC(=N)N)C(=O)N[C@@H](CCCCN)C(N)=O [Compound 18, [Tyr^1,hPhe^5]N/OFQ(1-13)-NH2] (H-YGGF[hPhe]GARKSARK-NH2) | 8.70 (8.24–9.16) | 0.003 | 301 ± 26 | crc incomplete; 10 μM: 228 ± 29 | crc incomplete |  |  |  |  | activation at 10 µM [2, 4]: 228 ± 29%
C[C@H](NC(=O)CNC(=O)[C@@H](NC(=O)[C@H](Cc1ccccc1)NC(=O)CNC(=O)CNC(=O)[C@@H](N)Cc1ccc(O)cc1)c1ccccc1)C(=O)N[C@@H](CCCNC(=N)N)C(=O)N[C@@H](CCCCN)C(=O)N[C@@H](CO)C(=O)N[C@@H](C)C(=O)N[C@@H](CCCNC(=N)N)C(=O)N[C@@H](CCCCN)C(N)=O [Compound 19, [Tyr^1,Phg^5]N/OFQ(1-13)-NH2] (H-YGGF[Phg]GARKSARK-NH2) | 7.57 (7.12–8.02) | 0.17 | 293 ± 31 | 6.81 (6.33–7.29) |  |  |  |  |  | Emax [2, 5]: 287 ± 48%
CC[C@H](NC(=O)[C@H](Cc1ccccc1)NC(=O)CNC(=O)CNC(=O)[C@@H](N)Cc1ccc(O)cc1)C(=O)NCC(=O)N[C@@H](C)C(=O)N[C@@H](CCCNC(=N)N)C(=O)N[C@@H](CCCCN)C(=O)N[C@@H](CO)C(=O)N[C@@H](C)C(=O)N[C@@H](CCCNC(=N)N)C(=O)N[C@@H](CCCCN)C(N)=O [Compound 7, [Tyr^1,Abu^5]N/OFQ(1-13)-NH2] (H-YGGF[Abu]GARKSARK-NH2) |  |  |  |  | crc incomplete | 8.15 (7.61–8.69) | 0.007 | 366 ± 20 | crc incomplete; 10 μM: 213 ± 37 | activation at 10 µM [2, 7]: 213 ± 37%
C[C@H](NC(=O)CNC(=O)[C@H](CN)NC(=O)[C@H](Cc1ccccc1)NC(=O)CNC(=O)CNC(=O)[C@@H](N)Cc1ccc(O)cc1)C(=O)N[C@@H](CCCNC(=N)N)C(=O)N[C@@H](CCCCN)C(=O)N[C@@H](CO)C(=O)N[C@@H](C)C(=O)N[C@@H](CCCNC(=N)N)C(=O)N[C@@H](CCCCN)C(N)=O [Compound 9, [Tyr^1,Dap^5]N/OFQ(1-13)-NH2] (H-YGGF[Dap]GARKSARK-NH2) |  |  |  |  | crc incomplete | 7.20 (6.95–7.45) | 0.06 | 367 ± 9 | crc incomplete; 10 μM: 144 ± 44 | activation at 10 µM [2, 7]: 144 ± 44%
CCCC[C@H](NC(=O)[C@H](Cc1ccccc1)NC(=O)CNC(=O)CNC(=O)[C@@H](N)Cc1ccc(O)cc1)C(=O)NCC(=O)N[C@@H](C)C(=O)N[C@@H](CCCNC(=N)N)C(=O)N[C@@H](CCCCN)C(=O)N[C@@H](CO)C(=O)N[C@@H](C)C(=O)N[C@@H](CCCNC(=N)N)C(=O)N[C@@H](CCCCN)C(N)=O [Compound 12, [Tyr^1,Nle^5]N/OFQ(1-13)-NH2] (H-YGGF[Nle]GARKSARK-NH2) |  |  |  |  |  | 8.77 (8.45–9.09) | 0.01 | 375 ± 9 | 6.74 (6.15–7.33) | Emax [2, 8]: 323 ± 4%
YGGFYGARKSARK-NH2 [Compound 14, [Tyr^1,5]N/OFQ(1-13)-NH2] |  |  |  |  |  | 7.07 (6.68–7.46) | 0.49 | 332 ± 19 | 6.76 (6.34–7.18) | Emax [2, 8]: 357 ± 21%
Cc1cc(O)cc(C)c1C[C@H](N)C(=O)NCC(=O)NCC(=O)N[C@@H](Cc1ccccc1)C(=O)N[C@@H](Cc1ccccc1)C(=O)NCC(=O)N[C@@H](C)C(=O)N[C@@H](CCCNC(=N)N)C(=O)N[C@@H](CCCCN)C(=O)N[C@@H](CO)C(=O)N[C@@H](C)C(=O)N[C@@H](CCCNC(=N)N)C(=O)N[C@@H](CCCCN)C(N)=O [Compound 31, [Dmt^1,Phe^5]N/OFQ(1-13)-NH2] (H-[Dmt]GGFFGARKSARK-NH2) |  |  |  |  |  |  |  |  |  | Emax ([1]; read-out: NOP Emax ± S.E.M., Table 3 series, percent over the baseline fluorescence): 277 ± 28%; Emax ([2]; read-out: mu Emax ± S.E.M., Table 3 series): 335 ± 22%
C[C@H](NC(=O)CNC(=O)[C@H](Cc1ccc(-c2ccccc2)cc1)NC(=O)[C@H](Cc1ccccc1)NC(=O)CNC(=O)CNC(=O)[C@@H](N)Cc1ccc(O)cc1)C(=O)N[C@@H](CCCNC(=N)N)C(=O)N[C@@H](CCCCN)C(=O)N[C@@H](CO)C(=O)N[C@@H](C)C(=O)N[C@@H](CCCNC(=N)N)C(=O)N[C@@H](CCCCN)C(N)=O [Compound 24, [Tyr^1,Bip^5]N/OFQ(1-13)-NH2] (H-YGGF[Bip]GARKSARK-NH2) | 6.93 (6.63–7.22) | 0.15 | 272 ± 29 | crc incomplete; 10 μM: 151 ± 66 | crc incomplete |  |  |  |  | activation at 10 µM [2, 4]: 151 ± 66%
YGGFKGARKSARK-NH2 [Compound 8, [Tyr^1,Lys^5]N/OFQ(1-13)-NH2] |  |  |  |  | crc incomplete | 7.26 (6.74–7.78) | 0.05 | 366 ± 6 | crc incomplete; 10 μM: 113 ± 35 | activation at 10 µM [2, 7]: 113 ± 35%
YGGFWGARKSARK-NH2 [Compound 17, [Tyr^1,Trp^5]N/OFQ(1-13)-NH2] | 7.27 (7.19–7.35) | 0.07 | 288 ± 28 | crc incomplete; 10 μM: 193 ± 31 | crc incomplete |  |  |  |  | activation at 10 µM [2, 4]: 193 ± 31%
YGGFFGARKSARK-NH2 [Compound 15, [Tyr^1,Phe^5]N/OFQ(1-13)-NH2] | 7.72 (7.56–7.87) | 0.05 | 242 ± 11 | 6.41 (5.85–6.97) |  |  |  |  |  | Emax [2, 5]: 315 ± 32%
YGGFHGARKSARK-NH2 [Compound 16, [Tyr^1,His^5]N/OFQ(1-13)-NH2] | 7.39 (7.16–7.62) | 0.05 | 249 ± 23 | crc incomplete; 10 μM: 230 ± 37 | crc incomplete |  |  |  |  | activation at 10 µM [2, 4]: 230 ± 37%
YGGFK(Ac)GARKSARK-NH2 [Compound 6, [Tyr^1,Lys(Ac)^5]N/OFQ(1-13)-NH2] |  |  |  |  | crc incomplete | 8.55 (7.88–9.22) | 0.003 | 370 ± 16 | crc incomplete; 10 μM: 161 ± 31 | activation at 10 µM [2, 7]: 161 ± 31%
C[C@H](NC(=O)CNC(=O)[C@@H](NC(=O)[C@H](Cc1ccccc1)NC(=O)CNC(=O)CNC(=O)[C@@H](N)Cc1ccccc1)[C@@H](C)O)C(=O)N[C@@H](CCCNC(=N)N)C(=O)N[C@@H](CCCCN)C(=O)N[C@@H](CO)C(=O)N[C@@H](C)C(=O)N[C@@H](CCCNC(=N)N)C(=O)N[C@@H](CCCCN)C(N)=O [Compound 1, N/OFQ(1-13)NH2, reference compound] |  |  |  | inactive | inactive |  |  |  | inactive | mu Emax ± S.E.M. ([2]; Table 1 series): inactive; mu Emax ± S.E.M. ([2]; Table 2 series): inactive; mu pEC50 (CL95%) ([2]; Table 3 series): inactive; mu Emax ± S.E.M. ([2]; Table 3 series): inactive
